According to patent publication US11590117B2, “Treatment of a hematologic malignancy with 2-(4-chlorophenyl)-n-((2-(2,6-dioxopiperidin-3-yl)-1-oxoisoindolin-5-yl)methyl)-2,2-difluoroacetamide” (priority 2016, dated 2023):
Values joined by “and” are separate entries in the source; they are usually repeats but may differ in a detail not shown here. Equal values may be shown once. Read-outs that look alike come from different tables or passages of the source.

Assays:
[1] = tested on: leukemic cells of AML bone marrow samples; assay: Ex vivo flow cytometry (ExviTech) assay in AML donor bone marrow samples; assay type: cell-based, human; details: for Emax: 100% minus YMin; for depletion of leukemic cells, on average: sensitive patient samples
Experimental: (§1) Patient Samples: The study included bone marrow (BM) samples from adult patients over 18 years of age who were diagnosed with AML. Samples were analyzed in two different batches with the first batch containing 10 patients (donors assigned identification codes containing CG1) and the second comprising the remaining 20 donors (assigned identification codes containing CG3). Corresponding clinical data was not available for the second batch of 20 patient samples at the time of writing.
(§2) Experimental Study Design: To evaluate and characterize the ex vivo pharmacology of Compound 1 in malignant cells and normal lymphocytes of bone marrow samples from thirty donors with acute myeloid leukemia using a flow cytometry-based platform (ExviTech) (Bennett, et al Clin Lymphoma Myeloma Leuk 2014 August; 14(4):305-318).
(§3) On Day 1, the donor sample was received. A small part was separated for validation, and the majority was diluted with culture medium (Roswell Park Memorial Institute (RPMI) 1640) and plated into 96-well plates previously prepared with a range of Compound 1 concentrations. The number of live leukemic cells seeded in each well was fixed between 8000 and 32,000, depending on the percentage of leukemic cells for each sample. The plates were incubated for 24, 48, or 96 hours. Antibodies anti-D34, anti-CD117, anti-HLA-DR, anti-CD45, anti-CD14, anti-CD64, anti-CD13, anti-CD11b) or Annexin V were added to identify leukemic cells using a gating strategy based on forward scatter (FSC) or side scatter (SSC) and expression or lack of expression of different surface markers. The monoclonal antibody selection was performed to optimize the identification of leukemic cells in each sample. The aim of this analysis was not the phenotypic characterization but only the identification of these cells. Accordingly, the markers that Euroflow (van Dongen et al, Leukemia 2012 September; 26(9):1908-1975) has designated as the “backbone markers” for AML (CD34, CD45, CD117) and human leukocyte antigen-DR (HLA-DR) were included in the combination. They allowed the identification of the leukemic cells in almost 90% of AML patients. Additional panels, CD34/CD14/CD64/CD45 and CD34/CD11b/CD13/CD45, were also used to complete the identification of the myeloid leukemic population. This allowed for the selection of the two best antibodies for unequivocal identification of the pathological cell population in each particular sample.
(§4) Live leukemic cells were identified by their light scattering properties classified as high, intermediate, or low (eg, FSC^int/hi/SSC^int) in the absence of Annexin V fluorescein isothiocyanate (FITC) staining. Forward scatter/side scatter selection was performed to exclude debris. The average percentage of cell viability on receipt of the sample was greater than 50% (samples were only processed if the viability was greater than 50%). In some AML donor samples, sufficient normal, non-tumoral lymphocyte cells could be counted, and the effect of Compound 1 was measured in this cell population. Non-tumoral lymphocytes were identified by bright expression of CD45, FSC^low/SSC^low and absence of myeloid markers (CD117, CD11b, and CD13).
(§5) Detailed descriptions of methods used have been published previously (Bennett, et al Clin Lymphoma Myeloma Leuk 2014 August; 14(4):305-318). Briefly, BM samples were extracted under sterile conditions in hospitals of origin and were received within 24 hours of extraction. Initial analysis evaluated the number of pathological cells and their viability. Different volumes of sample (1 μL, 3 μL, 5 μL, and 7 μL) were transferred in duplicate into a 96-well plate. To lyse red blood cells, 180 μL of ammonium chloride lysis solution (2 g KHCO3, 16.58 g NH4Cl, 0.074 g disodium ethylenediaminetetraacetic acid ⋅2H2O, and H2O adjusted to […]) was added to each well. Following a 10-minute incubation period at 4° C., each plate was centrifuged for 5 minutes at 1200 rpm, and the supernatant removed. […]

[2] = tested on: normal lymphocytes of AML bone marrow samples; assay: as above; assay type: cell-based, human
Experimental: as §1, §2, §3, §4, §5

O=C1CCC(N2Cc3cc(CNC(=O)C(F)(F)c4ccc(Cl)cc4)ccc3C2=O)C(=O)N1 (stereo not drawn) [Compound 1, 2-(4-chlorophenyl)-N-((2-(2,6-dioxopiperidin-3-yl)-1-oxoisoindolin-5-yl)methyl)-2,2-difluoroacetamide]
patient samples sensitive to Compound 1 ([1]; 30 fresh AML bone marrow samples): 26 out of 30
Emax ([1]; Homo sapiens, 96 h, Leukemic (LIVE) cells, 96 hours incubation, per AML donor sample, read-out: Emax): 98%
EC50 ([1]; Homo sapiens, 96 h, sensitive AML patient samples (26 out of 30), across all three time points (24, 48, 96 hours), read-out: EC50 (range)): 0.002 to 0.16 µM
EC50 ([1]; Homo sapiens, 96 h, sensitive AML patient samples (26 out of 30), across all three time points (24, 48, 96 hours), read-out: mean EC50): 0.021 µM
Emax ([1]; Leukemic (LIVE) cells, 24 hours incubation, per AML donor sample): 64.3% and 83.1%
EC50 ([1]; Leukemic (LIVE) cells, 24 hours incubation, per AML donor sample, unit not printed in table (2 to 160 nM), read-out: EC50): 0.013 µM
Emax ([1]; Leukemic (LIVE) cells, 48 hours incubation, per AML donor sample): 99.8%
Emax ([1]; Leukemic (LIVE) cells, 96 hours incubation, per AML donor sample): 100.0% and 99.9% and 99.6%
EC50 ([1]; Leukemic (LIVE) cells, 96 hours incubation, per AML donor sample, unit not printed in table (2 to 160 nM), read-out: EC50): 0.005 µM
depletion of leukemic blasts ([1]; four patient samples categorized as insensitive, at 24 and 48 hours): ≤ 68%
depletion of leukemic cells, on average ([1]; by 48 hours): > 92%
depletion of leukemic cells, on average ([1]; by 96 hours): > 98%
Emax ([2]; Homo sapiens, Lymphocyte, normal lymphocytes in patient samples where sufficient could be counted, from 24 to 96 hours, read-out: Emax, averaged): 46 to 76%
Emax ([2]; Lymphoid (LIVE) cells, 48 hours incubation, per AML donor sample, 100% minus YMin): 69.4%
EC50 ([2]; Lymphoid (LIVE) cells, 48 hours incubation, per AML donor sample, unit inferred): 0.043 µM
